In ChEMBL document CHEMBL1135080, “Pyridazine based inhibitors of p38 MAPK” (Bioorg Med Chem Lett, 2002):

How the values were obtained:
MAP kinase p38 [1] = target: T1, MAP kinase p38 (Homo sapiens, UniProt O15264+Q15759+Q16539+P53778); test: Inhibition of Mitogen-activated protein kinase p38; type: protein assay
MAP kinase p38 [2] = target: T1, MAP kinase p38; test: Inhibition of Mitogen-activated protein kinase p38 at 1000 nM; type: protein assay
[3] = target: T2, Mitogen-activated protein kinase 9 (Homo sapiens, UniProt P45984); test: Inhibition of JNK2-alpha-2 kinase
[4] = target: T2, Mitogen-activated protein kinase 9; test: Inhibition of JNK2-alpha-1 kinase
[5] = target: Tyrosine-protein kinase Lck (Homo sapiens) (UniProt P06239); test: Inhibition of LCK1 kinase at 15000 nM
[6] = target: RAF proto-oncogene serine/threonine-protein kinase (Homo sapiens) (UniProt P04049); test: Inhibition of c-Raf kinase at 5000 nM
RAF proto-oncogene serine/threonine-protein kinase (Homo sapiens), sequence (P04049 whole entry): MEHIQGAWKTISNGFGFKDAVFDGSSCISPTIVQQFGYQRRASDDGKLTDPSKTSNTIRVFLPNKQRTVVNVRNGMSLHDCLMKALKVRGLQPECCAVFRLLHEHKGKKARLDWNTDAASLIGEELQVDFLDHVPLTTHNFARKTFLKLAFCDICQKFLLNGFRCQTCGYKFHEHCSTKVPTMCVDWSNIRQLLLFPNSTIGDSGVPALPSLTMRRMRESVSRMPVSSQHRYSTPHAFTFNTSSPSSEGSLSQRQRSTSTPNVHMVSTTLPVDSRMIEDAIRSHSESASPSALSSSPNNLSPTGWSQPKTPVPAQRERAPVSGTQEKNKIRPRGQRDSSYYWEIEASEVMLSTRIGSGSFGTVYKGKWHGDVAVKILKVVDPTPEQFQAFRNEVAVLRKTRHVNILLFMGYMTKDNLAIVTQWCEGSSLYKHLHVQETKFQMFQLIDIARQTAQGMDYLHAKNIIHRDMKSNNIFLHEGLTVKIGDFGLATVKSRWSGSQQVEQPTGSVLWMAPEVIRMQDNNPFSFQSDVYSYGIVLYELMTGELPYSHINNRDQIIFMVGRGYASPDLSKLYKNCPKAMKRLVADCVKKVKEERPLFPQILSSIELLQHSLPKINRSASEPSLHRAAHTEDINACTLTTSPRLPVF

T2 sequence (P45984 whole entry): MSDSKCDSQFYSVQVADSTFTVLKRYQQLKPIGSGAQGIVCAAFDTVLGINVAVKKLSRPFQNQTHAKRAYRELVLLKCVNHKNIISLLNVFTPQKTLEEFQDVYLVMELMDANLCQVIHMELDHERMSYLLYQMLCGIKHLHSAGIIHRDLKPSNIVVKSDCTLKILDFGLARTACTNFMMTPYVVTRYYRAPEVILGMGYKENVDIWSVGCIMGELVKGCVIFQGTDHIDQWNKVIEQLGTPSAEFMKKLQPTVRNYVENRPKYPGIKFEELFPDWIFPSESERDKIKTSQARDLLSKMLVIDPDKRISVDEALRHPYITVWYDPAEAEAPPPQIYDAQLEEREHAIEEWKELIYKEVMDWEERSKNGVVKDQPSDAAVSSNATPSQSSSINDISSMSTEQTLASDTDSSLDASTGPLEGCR
Tyrosine-protein kinase Lck (Homo sapiens), sequence (P06239 2-509 limits assumed): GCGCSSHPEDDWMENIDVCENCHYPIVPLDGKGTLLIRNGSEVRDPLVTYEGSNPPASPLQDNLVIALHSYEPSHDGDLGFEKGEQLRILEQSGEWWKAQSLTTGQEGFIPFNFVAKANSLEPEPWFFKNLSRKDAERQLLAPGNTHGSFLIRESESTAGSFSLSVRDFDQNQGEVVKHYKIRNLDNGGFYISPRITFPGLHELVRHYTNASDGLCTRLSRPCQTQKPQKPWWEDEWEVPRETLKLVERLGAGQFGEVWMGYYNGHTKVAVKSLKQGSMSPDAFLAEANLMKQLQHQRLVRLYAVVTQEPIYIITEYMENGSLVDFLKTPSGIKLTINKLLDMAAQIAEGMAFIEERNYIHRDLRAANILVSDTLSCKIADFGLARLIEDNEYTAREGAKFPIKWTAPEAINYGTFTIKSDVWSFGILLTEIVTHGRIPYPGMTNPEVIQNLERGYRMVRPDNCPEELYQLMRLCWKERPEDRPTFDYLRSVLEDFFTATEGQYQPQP

Structure (SMILES)	IC50 (MAP kinase p38 [1]) [nM]	also measured
C[C@H](Nc1nccc(-c2cc(N(C)C)nnc2-c2cccc(C(F)(F)F)c2)n1)c1ccccc1	2.5	–
C[C@H](Nc1nccc(-c2nnc(C3CCNCC3)cc2-c2cccc(C(F)(F)F)c2)n1)c1ccccc1	–	inhibition (MAP kinase p38 [2]): 4.81%
C[C@H](Nc1nccc(-c2cc(N(C)CCN(C)C)nnc2-c2cccc(C(F)(F)F)c2)n1)c1ccccc1	1.4	–
C[C@H](Nc1nccc(-c2cc(N3CCCCC3)nnc2-c2cccc(C(F)(F)F)c2)n1)c1ccccc1	20.1	–
CC1CCN(c2cc(-c3ccnc(N[C@@H](C)c4ccccc4)n3)c(-c3cccc(C(F)(F)F)c3)nn2)CC1	7.4	–
C[C@H](Nc1nccc(-c2cc(N3CCN(C)CC3)nnc2-c2cccc(C(F)(F)F)c2)n1)c1ccccc1	1.9	–
C[C@H](Nc1nccc(-c2cc(N3CCOCC3)nnc2-c2cccc(C(F)(F)F)c2)n1)c1ccccc1	2.6	IC50 [3]: 1400 nM; IC50 [4]: 820 nM; inhibition [5]: 22%; inhibition [6]: 29%

Second part, led by results:

IC50 (MAP kinase p38 [1]) [nM]	Structure (SMILES)	also measured
0.6	C[C@H](Nc1nccc(-c2cc(N3CCNCC3)nnc2-c2cccc(C(F)(F)F)c2)n1)c1ccccc1	–
12000	C[C@H](Nc1nccc(-c2nc(C3CCNCC3)n(C)c2-c2cccc(C(F)(F)F)c2)n1)c1ccccc1	–
